Measurements taken from US11730712B2, “Functionalized long-chain hydrocarbon mono- and di-carboxylic acids and derivatives thereof, and their use for the prevention or treatment of disease” (ESPERVITA THERAPEUTICS, INC., priority 2021, dated 2023).

Test system: liver fibrosis gene panel (770 genes)
Assay: Nanostring nCounter Fibrosis panel gene expression in liver of DEN-injected mice
Assay type: in vivo, mouse
Description: Nanostring Analysis. RNA was extracted from paired liver and tumor tissue from vehicle, Compound I-1 (100 mg/kg) and Compound I-32 (100 mg/kg) treated mice using an RNeasy kit (Qiagen, Calif., USA) as per manufacturer's protocol. All RNA samples passed the BioAnalyzer quality control test. The expression of target genes in liver and tumor were analyzed using the nCounter Fibrosis and Cancer Panel (NanoString Technologies, Inc., WA, USA), respectively according to manufacturer's protocol at the McMaster Genomics Facility. Technical and biological normalization against global geometric mean was performed in nSolver 4.0 software (NanoString Technologies). Technical normalization was performed in the nSolver software (version 4.0.70) by normalizing sample target raw counts to the geometric mean of positive control spike-ins. Biological normalization was performed by normalizing sample target raw counts to the geometric mean of selected housekeeping genes (Ppia, Nubp1, Nol7, Armh3, Rplp0, Cnot10, Pgk1, and Acad9). Pathway scores were calculated as the first principal component of the normalized expression values for all genes in each pathway and samples were compiled according to experimental groups to determine average pathway scores. Statistical significance was calculated between experimental groups using multiple t-tests and p-values were corrected for multiple comparisons using Benjamin-Hochberg false discovery rate.
Molecular analysis. To identify the pathways modulated in the liver and tumor tissue, nanostring analysis of fibrosis and cancer, pathways, respectively were completed in an n=8 mice treated with vehicle or Compound I-32 or Compound I-1 at 100 mg/kg.

In the case of `CC(C)(CCCCc1cccc(CCCCC(C)(C)C(=O)O)c1)C(=O)O` [Compound I-32, 6-[3-(5-carboxy-5-methylhexyl)-phenyl]-2,2-dimethylhexanoic acid], the “number of genes downregulated” value (100 mg/kg, 4 weeks) is reported as 159, the “number of genes upregulated” value (100 mg/kg, 4 weeks) is reported as 71 and the “number of genes with altered expression relative to vehicle controls (770 genes measured)” value (100 mg/kg, 4 weeks) is reported as 231. The “Adh1 Log2FC” value (NM_007409, 100 mg/kg, vs vehicle) was 0.536, the “Aldh3a2 Log2FC” value (NM_007437, 100 mg/kg, vs vehicle) was 0.869 and the “Prdx6 Log2FC” value (NM_007453, 100 mg/kg, vs vehicle) was −0.595. For the same compound, the “Apoa4 Log2FC” value (NM_007468, 100 mg/kg, vs vehicle) was −3.4, the “Atp6v1e1 Log2FC” value (NM_007510, 100 mg/kg, vs vehicle) was 0.153 and the “Casp7 Log2FC” value (NM_007611, 100 mg/kg, vs vehicle) was −0.31. The “Cd36 Log2FC” value (NM_007643, 100 mg/kg, vs vehicle) was 1.02, the “Cdh2 Log2FC” value (NM_007664, 100 mg/kg, vs vehicle) was −0.165 and the “Cebpa Log2FC” value (NM_007678, 100 mg/kg, vs vehicle) was −0.413. The “Cfi Log2FC” value (NM_007686, 100 mg/kg, vs vehicle) was −0.395, the “Chil1 Log2FC” value (NM_007695, 100 mg/kg, vs vehicle) was 2.58 and the “Col1a2 Log2FC” value (NM_007743, 100 mg/kg, vs vehicle) was −0.588. For the same compound, the “Cox6a1 Log2FC” value (NM_007748, 100 mg/kg, vs vehicle) was 0.336, the “Cox7c Log2FC” value (NM_007749, 100 mg/kg, vs vehicle) was 0.459 and the “Crp Log2FC” value (NM_007768, 100 mg/kg, vs vehicle) was −0.857. The “Ctsb Log2FC” value (NM_007798, 100 mg/kg, vs vehicle) was −0.216, the “Cybb Log2FC” value (NM_007807, 100 mg/kg, vs vehicle) was −0.644 and the “Cyp2c29 Log2FC” value (NM_007815, 100 mg/kg, vs vehicle) was −0.646. For the same compound, the “Cyp7a1 Log2FC” value (NM_007824, 100 mg/kg, vs vehicle) was −1.38, the “Diaph1 Log2FC” value (NM_007858, 100 mg/kg, vs vehicle) was −0.265 and the “Ephx2 Log2FC” value (NM_007940, 100 mg/kg, vs vehicle) was 0.562. The “F5 Log2FC” value (NM_007976, 100 mg/kg, vs vehicle) was −0.29, the “Fas Log2FC” value (NM_007987, 100 mg/kg, vs vehicle) was 0.226 and the “Fasn Log2FC” value (NM_007988, 100 mg/kg, vs vehicle) was 1.09. The “Slc37a4 Log2FC” value (NM_008063, 100 mg/kg, vs vehicle) was −0.843, the “Gas1 Log2FC” value (NM_008086, 100 mg/kg, vs vehicle) was −0.696 and the “Gpc4 Log2FC” value (NM_008150, 100 mg/kg, vs vehicle) was −0.381. For the same compound, the “Hadh Log2FC” value (NM_008212, 100 mg/kg, vs vehicle) was 0.258, the “Hsd11b1 Log2FC” value (NM_008288, 100 mg/kg, vs vehicle) was −1.23 and the “Hsd17b4 Log2FC” value (NM_008292, 100 mg/kg, vs vehicle) was 0.446. For the same compound, the “Irf8 Log2FC” value (NM_008320, 100 mg/kg, vs vehicle) was −0.357, the “Il10ra Log2FC” value (NM_008348, 100 mg/kg, vs vehicle) was −0.578 and the “Itch Log2FC” value (NM_008395, 100 mg/kg, vs vehicle) was −0.295. For the same compound, the “Kikb1 Log2FC” value (NM_008455, 100 mg/kg, vs vehicle) was −0.217, the “Lpl Log2FC” value (NM_008509, 100 mg/kg, vs vehicle) was 1.8 and the “Lrp1 Log2FC” value (NM_008512, 100 mg/kg, vs vehicle) was −0.376. The “Cd180 Log2FC” value (NM_008533, 100 mg/kg, vs vehicle) was −0.606, the “Masp1 Log2FC” value (NM_008555, 100 mg/kg, vs vehicle) was −0.26 and the “Anapc1 Log2FC” value (NM_008569, 100 mg/kg, vs vehicle) was −0.316. For the same compound, the “Mmp12 Log2FC” value (NM_008605, 100 mg/kg, vs vehicle) was −2.05, the “Mmp14 Log2FC” value (NM_008608, 100 mg/kg, vs vehicle) was −0.465 and the “Nedd8 Log2FC” value (NM_008683, 100 mg/kg, vs vehicle) was 0.0875. For the same compound, the “Pcx Log2FC” value (NM_008797, 100 mg/kg, vs vehicle) was −0.521, the “Plcb3 Log2FC” value (NM_008874, 100 mg/kg, vs vehicle) was −0.297 and the “Plg Log2FC” value (NM_008877, 100 mg/kg, vs vehicle) was −0.296. The “Ppm1a Log2FC” value (NM_008910, 100 mg/kg, vs vehicle) was 0.136, the “Map2k1 Log2FC” value (NM_008927, 100 mg/kg, vs vehicle) was −0.177 and the “Saa1/2 Log2FC” value (NM_009117, 100 mg/kg, vs vehicle) was −1.96. For the same compound, the “Scd1 Log2FC” value (NM_009127, 100 mg/kg, vs vehicle) was 0.602, the “Scd2 Log2FC” value (NM_009128, 100 mg/kg, vs vehicle) was 0.949 and the “Sorbs1 Log2FC” value (NM_009166, 100 mg/kg, vs vehicle) was −0.302. For the same compound, the “Sem1 Log2FC” value (NM_009169, 100 mg/kg, vs vehicle) was 0.298, the “Ssr4 Log2FC” value (NM_009279, 100 mg/kg, vs vehicle) was −0.228 and the “Tgfbr1 Log2FC” value (NM_009370, 100 mg/kg, vs vehicle) was −0.309. For the same compound, the “Traf2 Log2FC” value (NM_009422, 100 mg/kg, vs vehicle) was −0.346, the “Tnfsf10 Log2FC” value (NM_009425, 100 mg/kg, vs vehicle) was −0.692 and the “Axl Log2FC” value (NM_009465, 100 mg/kg, vs vehicle) was −0.418. For the same compound, the “Ap1g1 Log2FC” value (NM_009677, 100 mg/kg, vs vehicle) was −0.189, the “Apoa1 Log2FC” value (NM_009692, 100 mg/kg, vs vehicle) was −0.481 and the “Apob Log2FC” value (NM_009693, 100 mg/kg, vs vehicle) was −0.227. The “Bcl2l1 Log2FC” value (NM_009743, 100 mg/kg, vs vehicle) was −0.248, the “Serping1 Log2FC” value (NM_009776, 100 mg/kg, vs vehicle) was −0.66 and the “C3ar1 Log2FC” value (NM_009779, 100 mg/kg, vs vehicle) was −0.825. For the same compound, the “Calm1 Log2FC” value (NM_009790, 100 mg/kg, vs vehicle) was −0.327, the “Casp3 Log2FC” value (NM_009810, 100 mg/kg, vs vehicle) was −0.237 and the “Serpinh1 Log2FC” value (NM_009825, 100 mg/kg, vs vehicle) was −0.531. The “Cdk4 Log2FC” value (NM_009870, 100 mg/kg, vs vehicle) was 0.181, the “Cfh Log2FC” value (NM_009888, 100 mg/kg, vs vehicle) was −1.41 and the “Col3a1 Log2FC” value (NM_009930, 100 mg/kg, vs vehicle) was −0.679. The “Csnk2b Log2FC” value (NM_009975, 100 mg/kg, vs vehicle) was 0.0913, the “Ctsd Log2FC” value (NM_009983, 100 mg/kg, vs vehicle) was 0.331 and the “Cyp4a10/31/32 Log2FC” value (NM_010011, 100 mg/kg, vs vehicle) was 2.88. The “Fcer1g Log2FC” value (NM_010185, 100 mg/kg, vs vehicle) was −0.427, the “Fn1 Log2FC” value (NM_010233, 100 mg/kg, vs vehicle) was −0.584 and the “Got2 Log2FC” value (NM_010325, 100 mg/kg, vs vehicle) was 0.156. The “H2-Aa Log2FC” value (NM_010378, 100 mg/kg, vs vehicle) was −0.4, the “H2-D1 Log2FC” value (NM_010380, 100 mg/kg, vs vehicle) was −0.175 and the “H2-T23 Log2FC” value (NM_010398, 100 mg/kg, vs vehicle) was −0.224. The “Hck Log2FC” value (NM_010407, 100 mg/kg, vs vehicle) was −0.667, the “Hif1a Log2FC” value (NM_010431, 100 mg/kg, vs vehicle) was 0.283 and the “Hmox1 Log2FC” value (NM_010442, 100 mg/kg, vs vehicle) was −0.484. For the same compound, the “Hsp90aa1 Log2FC” value (NM_010480, 100 mg/kg, vs vehicle) was 0.361, the “Icam1 Log2FC” value (NM_010493, 100 mg/kg, vs vehicle) was −0.382 and the “Ikbkb Log2FC” value (NM_010546, 100 mg/kg, vs vehicle) was −0.526. For the same compound, the “II6st Log2FC” value (NM_010560, 100 mg/kg, vs vehicle) was −0.296, the “Ilk Log2FC” value (NM_010562, 100 mg/kg, vs vehicle) was −0.109 and the “Itgb1 Log2FC” value (NM_010578, 100 mg/kg, vs vehicle) was 0.143. For the same compound, the “Fabp5 Log2FC” value (NM_010634, 100 mg/kg, vs vehicle) was 1.44, the “Lepr Log2FC” value (NM_010704, 100 mg/kg, vs vehicle) was 0.604 and the “Psmb8 Log2FC” value (NM_010724, 100 mg/kg, vs vehicle) was −0.801. The “Lyn Log2FC” value (NM_010747, 100 mg/kg, vs vehicle) was −0.295, the “Marco Log2FC” value (NM_010766, 100 mg/kg, vs vehicle) was −1.54 and the “P4hb Log2FC” value (NM_011032, 100 mg/kg, vs vehicle) was −0.765. The “Pck1 Log2FC” value (NM_011044, 100 mg/kg, vs vehicle) was −1.99, the “Pitp Log2FC” value (NM_011125, 100 mg/kg, vs vehicle) was 1.37 and the “Pparg Log2FC” value (NM_011146, 100 mg/kg, vs vehicle) was −0.592. The “Prkdc Log2FC” value (NM_011159, 100 mg/kg, vs vehicle) was −0.525, the “Pros1 Log2FC” value (NM_011173, 100 mg/kg, vs vehicle) was −0.208 and the “Lgmn Log2FC” value (NM_011175, 100 mg/kg, vs vehicle) was −0.601. For the same compound, the “Ptprc Log2FC” value (NM_011210, 100 mg/kg, vs vehicle) was −0.47, the “S100a4 Log2FC” value (NM_011311, 100 mg/kg, vs vehicle) was −0.79 and the “Serpinf1 Log2FC” value (NM_011340, 100 mg/kg, vs vehicle) was −0.208. For the same compound, the “Sod1 Log2FC” value (NM_011434, 100 mg/kg, vs vehicle) was 0.284, the “Srebf1 Log2FC” value (NM_011480, 100 mg/kg, vs vehicle) was −0.634 and the “Thbs2 Log2FC” value (NM_011581, 100 mg/kg, vs vehicle) was −1.01. The “Timp2 Log2FC” value (NM_011594, 100 mg/kg, vs vehicle) was −0.451, the “Tjp2 Log2FC” value (NM_011597, 100 mg/kg, vs vehicle) was 0.199 and the “Tln1 Log2FC” value (NM_011602, 100 mg/kg, vs vehicle) was −0.355. For the same compound, the “Vegfb Log2FC” value (NM_011697, 100 mg/kg, vs vehicle) was 0.521, the “Adh4 Log2FC” value (NM_011996, 100 mg/kg, vs vehicle) was −0.855 and the “Bcap31 Log2FC” value (NM_012060, 100 mg/kg, vs vehicle) was −0.145. For the same compound, the “C9 Log2FC” value (NM_013485, 100 mg/kg, vs vehicle) was −1.25.
